Patent publication US8833457B2, “Sulfates and phosphates as allosteric effectors in mannanohydrolase enzyme breakers” (Baker Hughes Incorporated, priority 2011, dated 2014)

System: mannanohydrolase, GBW-22C
Test: Viscosity reduction of borate-crosslinked guar gel by mannanohydrolase enzyme breaker with allosteric effector (Chandler HTHP 5500 Viscometer)
Format: biochemical
Conditions: 150° F., 500 psi
Procedure: A solution was made comprising: 17 ppt of guar polymer, GW-3LDF; 1 gpt of clay stabilizer, Claytreat-3C; 1.5 gpt of buffer, BF-7L; 1 gpt of crosslinking agent, XLW-32; 1 gpt mannanohydrolase, GBW-22C, diluted 1/100 with distilled water; and 1 gpt of a 1% wt. solution of Na2SO4 (all components available from Baker Hughes Inc.). The solution was mixed with an overhead stirrer. 52 mL of crosslinked fluid was loaded on to a Chandler HTHP 5500 Viscometer and run at 500 psi, 150° F., and 100 s^−1 for an hour.
To compare the effects of phosphate and sulfate a solution was made comprising: 17 ppt of guar polymer, GW-3LDF; 1 gpt of clay stabilizer, Claytreat-3C; 1.5 gpt of buffer, BF-7L; 1 gpt of crosslinking agent, XLW-32; 1 gpt mannanohydrolase, GBW-22C, diluted 1/100 with distilled water; and 1 gpt of a 1% wt. solution of K2HPO4 (all components available from Baker Hughes Inc.).

O=S(=O)([O-])[O-].[Na+].[Na+] [Na2SO4]
difference in enzyme activity between high and smaller concentrations of the effector (FIG. 3) (3 g/L versus 1 gpt 20% wt. Na2SO4 or 2 mg/L, 100 s^−1): does not appear to be a difference
effect of the effector on activity of the mannanohydrolase enzyme against the guar polymer (FIG. 3) (17 ppt GW-3LDF guar, XLW-32 crosslinker, 1 gpt GBW-22C diluted 1/100, 1 gpt of 1% wt. Na2SO4, 100 s^−1, one hour): drastically improves the activity of the mannanohydrolase enzyme
